Results as given in ChEMBL document CHEMBL1201862, “PubChem BioAssay data set” (2004).
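Grown in 96-well plates, cells were treated for 48 hours with each compound at five concentrations. Insufficient inhibition: endpoint recorded as highest concentration tested. GI50: concentration for 50% inhibition of growth.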 Activity calls are given as the source filed them. Cut-off read from the data, not from the text of the source: active = GI50 up to about 1.1 µM and inactive = higher.

How the values were obtained:
Assay in all cases: inhibition of tumour cell growth, NCI panel, 48 h
786-0 = test system: 786-0
A498 = test system: A498
A549 = test system: A549
ACHN = test system: ACHN
BT-549 = test system: BT-549
CAKI-1 = test system: CAKI-1
CCRF-CEM = test system: CCRF-CEM
COLO 205 = test system: COLO 205
DU-145 = test system: DU-145
EKVX = test system: EKVX
HCC 2998 = test system: HCC 2998
HCT-116 = test system: HCT-116
HCT-15 = test system: HCT-15
HL-60 = test system: HL-60
HOP-62 = test system: HOP-62
HOP-92 = test system: HOP-92
HT-29 = test system: HT-29
Hs-578T = test system: Hs-578T
IGROV-1 = test system: IGROV-1
K562 = test system: K562
KM12 = test system: KM12
LOX IMVI = test system: LOX IMVI
M14 = test system: M14
MCF7 = test system: MCF7
MDA-MB-231 = test system: MDA-MB-231
MDA-MB-435 = test system: MDA-MB-435
MDA-N = test system: MDA-N
MOLT-4 = test system: MOLT-4
NCI-H460 = test system: NCI-H460
NCI/ADR-RES = test system: NCI/ADR-RES
OVCAR-3 = test system: OVCAR-3
OVCAR-4 = test system: OVCAR-4
OVCAR-5 = test system: OVCAR-5
OVCAR-8 = test system: OVCAR-8
PC-3 = test system: PC-3
RPMI-8226 = test system: RPMI-8226
RXF 393 = test system: RXF 393
SF-268 = test system: SF-268
SF-295 = test system: SF-295
SF-539 = test system: SF-539
SK-MEL-28 = test system: SK-MEL-28
SK-MEL-2 = test system: SK-MEL-2
SK-MEL-5 = test system: SK-MEL-5
SK-OV-3 = test system: SK-OV-3
SN12C = test system: SN12C
SNB-19 = test system: SNB-19
SNB-75 = test system: SNB-75
SR = test system: SR
SW-620 = test system: SW-620
T47D = test system: T47D
TK-10 = test system: TK-10
U-251 = test system: U-251
UACC-257 = test system: UACC-257
UACC-62 = test system: UACC-62
UO-31 = test system: UO-31
Malme-3M = test system: Malme-3M
NCI-H226 = test system: NCI-H226
NCI-H23 = test system: NCI-H23

In the case of `O=C1/C(=C/Cc2ccco2)N=C(c2ccccc2)N1c1nc2ccc(Sc3ccccc3)cc2[nH]1`, the GI50 (786-0) is reported as 18 µM (inactive), the GI50 (A498) is reported as 8.36 µM (inactive) and the GI50 (A549) is reported as 29.8 µM (inactive). For the same molecule, the GI50 (ACHN) was 19.4 µM (inactive), the GI50 (BT-549) was 20.3 µM (inactive) and the GI50 (CAKI-1) was 25.4 µM (inactive). For the same molecule, the GI50 (CCRF-CEM) was 19.3 µM (inactive), the GI50 (COLO 205) was 18.2 µM (inactive) and the GI50 (DU-145) was 23.1 µM (inactive). The GI50 (EKVX) was 25.6 µM (inactive), the GI50 (HCC 2998) was 16.9 µM (inactive) and the GI50 (HCT-116) was 17.8 µM (inactive). For the same molecule, the GI50 (HCT-15) was 30.5 µM, the GI50 (HL-60) was 21.7 µM (inactive) and the GI50 (HOP-62) was 30.1 µM (inactive). For the same molecule, the GI50 (HOP-92) was 18.7 µM (inactive), the GI50 (HT-29) was 25 µM (inactive) and the GI50 (Hs-578T) was 18.9 µM (inactive). The GI50 (IGROV-1) was 30.3 µM (inactive), the GI50 (K562) was 28.1 µM (inactive) and the GI50 (KM12) was 16.7 µM (inactive). The GI50 (LOX IMVI) was 18.8 µM (inactive), the GI50 (M14) was 19.7 µM (inactive) and the GI50 (MCF7) was 14 µM (inactive). The GI50 (MDA-MB-231) was 20.5 µM (inactive), the GI50 (MDA-MB-435) was 5.52 µM (inactive) and the GI50 (MDA-N) was 6.12 µM (inactive). For the same molecule, the GI50 (MOLT-4) was 16.3 µM (inactive), the GI50 (NCI-H460) was 26.9 µM (inactive) and the GI50 (NCI/ADR-RES) was 23.6 µM (inactive). The GI50 (OVCAR-3) was 21.9 µM (inactive), the GI50 (OVCAR-4) was 24.2 µM (inactive) and the GI50 (OVCAR-5) was 25.9 µM (inactive). For the same molecule, the GI50 (OVCAR-8) was 20.9 µM (inactive), the GI50 (PC-3) was 22.9 µM (inactive) and the GI50 (RPMI-8226) was 24.2 µM (inactive). For the same molecule, the GI50 (RXF 393) was 15.1 µM (inactive), the GI50 (SF-268) was 18.9 µM (inactive) and the GI50 (SF-295) was 29.7 µM (inactive). For the same molecule, the GI50 (SF-539) was 28.5 µM (inactive), the GI50 (SK-MEL-28) was 28.2 µM (inactive) and the GI50 (SK-MEL-2) was 16.1 µM (inactive). The GI50 (SK-MEL-5) was 15.9 µM (inactive), the GI50 (SK-OV-3) was 25.9 µM (inactive) and the GI50 (SN12C) was 16.1 µM (inactive). For the same molecule, the GI50 (SNB-19) was 33.2 µM (inactive), the GI50 (SNB-75) was 19.5 µM (inactive) and the GI50 (SR) was 13.6 µM (inactive). For the same molecule, the GI50 (SW-620) was 34 µM (inactive), the GI50 (T47D) was 32.1 µM (inactive) and the GI50 (TK-10) was 35.4 µM (inactive). The GI50 (U-251) was 19.7 µM (inactive), the GI50 (UACC-257) was 17.7 µM (inactive) and the GI50 (UACC-62) was 20.7 µM (inactive). For the same molecule, the GI50 (UO-31) was 19.2 µM (inactive).

In the case of `Cn1c(=O)c2c(nc3sc4nc5ccccc5nc4n32)n(C)c1=O`, the GI50 (786-0) is reported as > 100 µM (inactive), the GI50 (A498) is reported as > 100 µM (inactive) and the GI50 (A549) is reported as > 100 µM (inactive). For the same molecule, the GI50 (ACHN) was > 100 µM (inactive), the GI50 (BT-549) was > 100 µM (inactive) and the GI50 (CAKI-1) was > 100 µM (inactive). The GI50 (CCRF-CEM) was > 100 µM (inactive), the GI50 (COLO 205) was > 100 µM (inactive) and the GI50 (DU-145) was > 100 µM (inactive). The GI50 (EKVX) was > 100 µM (inactive), the GI50 (HCC 2998) was > 100 µM (inactive) and the GI50 (HCT-116) was > 100 µM (inactive). The GI50 (HCT-15) was > 100 µM, the GI50 (HL-60) was > 100 µM (inactive) and the GI50 (HOP-92) was > 100 µM (inactive). For the same molecule, the GI50 (HT-29) was > 100 µM (inactive), the GI50 (Hs-578T) was > 100 µM (inactive) and the GI50 (IGROV-1) was > 100 µM (inactive). For the same molecule, the GI50 (K562) was > 100 µM (inactive), the GI50 (KM12) was > 100 µM (inactive) and the GI50 (LOX IMVI) was 92.3 µM (inactive). The GI50 (M14) was > 100 µM (inactive), the GI50 (MCF7) was > 100 µM (inactive) and the GI50 (MDA-MB-231) was > 100 µM (inactive). For the same molecule, the GI50 (MDA-MB-435) was > 100 µM (inactive), the GI50 (MDA-N) was > 100 µM (inactive) and the GI50 (MOLT-4) was > 100 µM (inactive). The GI50 (Malme-3M) was > 100 µM (inactive), the GI50 (NCI-H226) was > 100 µM (inactive) and the GI50 (NCI-H23) was > 100 µM (inactive). The GI50 (NCI-H460) was > 100 µM (inactive), the GI50 (NCI/ADR-RES) was > 100 µM (inactive) and the GI50 (OVCAR-3) was > 100 µM (inactive). For the same molecule, the GI50 (OVCAR-5) was > 100 µM (inactive), the GI50 (OVCAR-8) was > 100 µM (inactive) and the GI50 (PC-3) was > 100 µM (inactive). For the same molecule, the GI50 (RPMI-8226) was > 100 µM (inactive), the GI50 (RXF 393) was > 100 µM (inactive) and the GI50 (SF-268) was > 100 µM (inactive). The GI50 (SF-295) was 49.5 µM (inactive), the GI50 (SF-539) was > 100 µM (inactive) and the GI50 (SK-MEL-5) was 32.7 µM (inactive). For the same molecule, the GI50 (SK-OV-3) was > 100 µM (inactive), the GI50 (SN12C) was 85.9 µM (inactive) and the GI50 (SNB-19) was > 100 µM (inactive). For the same molecule, the GI50 (SNB-75) was 34.8 µM (inactive), the GI50 (SR) was > 100 µM (inactive) and the GI50 (T47D) was > 100 µM (inactive). The GI50 (TK-10) was > 100 µM (inactive), the GI50 (U-251) was > 100 µM (inactive) and the GI50 (UACC-257) was > 100 µM (inactive). The GI50 (UACC-62) was > 100 µM (inactive) and the GI50 (UO-31) was > 100 µM (inactive).

For `CCOC(=O)c1cc(Br)c(-c2cc(C)co2)[nH]1`, the GI50 (786-0) was > 100 µM (inactive), the GI50 (A498) was > 100 µM (inactive) and the GI50 (A549) was > 100 µM (inactive). For the same molecule, the GI50 (BT-549) was > 100 µM (inactive), the GI50 (CAKI-1) was > 100 µM (inactive) and the GI50 (CCRF-CEM) was > 100 µM (inactive). The GI50 (COLO 205) was > 100 µM (inactive), the GI50 (DU-145) was > 100 µM (inactive) and the GI50 (EKVX) was 67 µM (inactive). For the same molecule, the GI50 (HCC 2998) was > 100 µM (inactive), the GI50 (HCT-116) was > 100 µM (inactive) and the GI50 (HCT-15) was > 100 µM. The GI50 (HL-60) was 55.7 µM (inactive), the GI50 (HOP-62) was > 100 µM (inactive) and the GI50 (HOP-92) was > 100 µM (inactive). For the same molecule, the GI50 (HT-29) was > 100 µM (inactive), the GI50 (Hs-578T) was 84.5 µM (inactive) and the GI50 (IGROV-1) was 66.1 µM (inactive). For the same molecule, the GI50 (K562) was 69.8 µM (inactive), the GI50 (KM12) was 73.3 µM (inactive) and the GI50 (LOX IMVI) was > 100 µM (inactive). The GI50 (M14) was > 100 µM (inactive), the GI50 (MCF7) was > 100 µM (inactive) and the GI50 (MDA-MB-231) was > 100 µM (inactive). For the same molecule, the GI50 (MDA-MB-435) was 32.9 µM (inactive), the GI50 (MDA-N) was 36.4 µM (inactive) and the GI50 (MOLT-4) was 54.6 µM (inactive). For the same molecule, the GI50 (Malme-3M) was > 100 µM (inactive), the GI50 (NCI-H226) was > 100 µM (inactive) and the GI50 (NCI-H23) was > 100 µM (inactive). The GI50 (NCI-H460) was > 100 µM (inactive), the GI50 (NCI/ADR-RES) was > 100 µM (inactive) and the GI50 (OVCAR-3) was > 100 µM (inactive). The GI50 (OVCAR-4) was > 100 µM (inactive), the GI50 (OVCAR-5) was > 100 µM (inactive) and the GI50 (OVCAR-8) was > 100 µM (inactive). The GI50 (PC-3) was > 100 µM (inactive), the GI50 (RPMI-8226) was > 100 µM (inactive) and the GI50 (RXF 393) was > 100 µM (inactive). The GI50 (SF-268) was > 100 µM (inactive), the GI50 (SF-295) was > 100 µM (inactive) and the GI50 (SF-539) was > 100 µM (inactive). The GI50 (SK-MEL-28) was > 100 µM (inactive), the GI50 (SK-MEL-2) was > 100 µM (inactive) and the GI50 (SK-MEL-5) was 81.3 µM (inactive). For the same molecule, the GI50 (SK-OV-3) was > 100 µM (inactive), the GI50 (SN12C) was > 100 µM (inactive) and the GI50 (SNB-19) was > 100 µM (inactive). For the same molecule, the GI50 (SNB-75) was > 100 µM (inactive), the GI50 (SR) was 31.8 µM (inactive) and the GI50 (SW-620) was > 100 µM (inactive). The GI50 (T47D) was > 100 µM (inactive), the GI50 (U-251) was > 100 µM (inactive) and the GI50 (UACC-257) was > 100 µM (inactive). For the same molecule, the GI50 (UACC-62) was > 100 µM (inactive) and the GI50 (UO-31) was 66.7 µM (inactive).
